Experimental data as given in patent publication US20150038591A1, “Compounds, compositions and methods for the treatment of tauopathies” (PROTEOTECH INC., priority 2002, published 2015).
pIC50: −log10 of the molar value.

Assays:
[1] = molecular target: T1, aggregated Tau-441 (Homo sapiens, UniProt P10636); experiment: Thioflavin T fluorometry, dissolution/disruption/inhibition of preformed Tau aggregates; type: biochemical; conditions: 3 days at 37° C.
T1 construct: purchased rPeptide
Description: Thioflavin T binds specifically to aggregated Tau or Tau tangles, and this binding produces a fluorescence enhancement at 485 nm that is directly proportional to the amount of aggregated Tau. The higher the fluorescence, the greater the amount of aggregated Tau.
In this study, Tau-441 or TauRD was pre-fibrillized or aggregated by combining with Heparin (SIGMA) at 1:1 wt/wt, then incubation at 37° C. and shaking at 1400 rpm for 8 days. […] Following 3-days of co-incubation, 50 μl of each incubation mixture was transferred into a 96-well microtiter plate containing 150 μl of distilled water and 50 μl of a Thioflavin T solution (i.e. […] Thioflavin T in 250 mM phosphate buffer, pH 6.8). The fluorescence was read at 485 nm (444 nm excitation wavelength) using an ELISA plate fluorometer after subtraction with buffer alone or compound alone, as blank.

[2] = molecular target: Tau aggregates (Homo sapiens, UniProt P10636); experiment: Thioflavin S fluorometry, dissolution/disruption/inhibition of Tau aggregates; type: biochemical
Description: In contrast to quantitation of Aβ fibrils, where ThioT is used, it was shown for tau aggregates that ThioS is more reproducible and independent of solvent characteristics. […] (Friedhoff, P et al. (1998) Biochem 10223-10230)
The Thio S assay involves the dilution of 500 μM ThioS stock 1:1 with PBS. Pipette 25 μl of this into the wells of a 96-well assay plate. Add 50 μl samples and 50 μl PBS and mix well. Read plates immediately on a fluorometer with the excitation set at 444 nm and emission set at 485 nm. […] Log transformed values are analyzed using “Nonlinear regression (curve fit) log(inhibitor) vs. normalized response—Variable slope” analysis.

[3] = Tau:test compound wt/wt ratio 1:0.001
[4] = Tau:test compound wt/wt ratio 1:0.01
[5] = Tau:test compound wt/wt ratio 1:0.1
[6] = Tau:test compound wt/wt ratio 1:1

T1 sequence (P10636 1-441 isoform P10636-8): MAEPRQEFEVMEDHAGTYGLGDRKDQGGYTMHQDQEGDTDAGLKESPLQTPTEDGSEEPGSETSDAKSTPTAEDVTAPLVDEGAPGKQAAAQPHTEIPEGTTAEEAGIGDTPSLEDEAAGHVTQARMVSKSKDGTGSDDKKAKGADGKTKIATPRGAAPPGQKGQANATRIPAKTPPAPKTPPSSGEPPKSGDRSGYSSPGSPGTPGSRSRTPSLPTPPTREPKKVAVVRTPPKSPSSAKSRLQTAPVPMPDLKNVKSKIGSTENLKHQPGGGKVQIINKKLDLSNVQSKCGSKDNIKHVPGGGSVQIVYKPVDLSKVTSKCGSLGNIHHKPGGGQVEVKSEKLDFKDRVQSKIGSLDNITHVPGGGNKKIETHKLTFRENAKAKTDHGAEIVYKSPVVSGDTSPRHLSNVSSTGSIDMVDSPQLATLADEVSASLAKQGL
Sequence of Tau aggregates (P10636 1-441 isoform P10636-8): as above

Compound | % dissolution/disruption/inhibition Tau (result ± S.D.) [1, 3] [%] | % dissolution/disruption/inhibition Tau (result ± S.D.) [1, 4] [%] | % dissolution/disruption/inhibition Tau (result ± S.D.) [1, 5] [%] | % dissolution/disruption/inhibition Tau (result ± S.D.) [1, 6] [%] | pIC50 [2]
Oc1ccc(Cc2ccc(O)c(O)c2)cc1O [Compound 3, 3,4,3′,4′-Tetrahydroxydiphenylmethane] | 17.0 ± 2.49 | 54.1 ± 2.62 | 89.2 ± 1.96 | 91.2 ± 2.59 | 4.49
Oc1ccc(CCc2ccc(O)c(O)c2)cc1O [Compound 4, 1,2-bis(3,4-dihydroxyphenyl)ethane] | 19.3 ± 0.00 | 68.0 ± 1.71 | 92.8 ± 2.59 | 93.5 ± 4.42 | 4.97

Next, values leading:

% dissolution/disruption/inhibition Tau (result ± S.D.) [1, 3] [%] | % dissolution/disruption/inhibition Tau (result ± S.D.) [1, 4] [%] | % dissolution/disruption/inhibition Tau (result ± S.D.) [1, 5] [%] | % dissolution/disruption/inhibition Tau (result ± S.D.) [1, 6] [%] | pIC50 [2] | Compound
11.8 ± 8.06 | 16.5 ± 2.49 | 34.7 ± 1.69 | 77.8 ± 1.13 |  | O=C(Nc1ccc(O)c(O)c1)C(=O)Nc1ccc(O)c(O)c1 [Compound 63, oxalic acid bis(3,4-dihydroxyanilide)]
17.4 ± 4.88 | 54.1 ± 2.62 | 91.2 ± 0.56 | 94.1 ± 2.99 | 5.40 | O=C(Nc1ccc(O)c(O)c1)Nc1ccc(O)c(O)c1 [Compound 76, 1,3-Bis(3,4-dihydroxyphenyl)urea]
 |  |  |  | 5.28 | O=C(NCCc1ccc(O)c(O)c1)Nc1ccc(O)c(O)c1 [Compound 78, 1-(3,4-Dihydroxyphenyl)-3-(3,4-dihydroxyphenethyl)urea]
